Values joined by “and” are separate entries in the source; they are usually repeats but may differ in a detail not shown here. Identical values can stand only once. Marks after values point to notes of the source that are not given here.
Experiment: Pharmacokinetic study of 153 (iv, po) in SD rats: 153 and endothal in plasma, liver, brain
Assay type: in vivo, SD rats
Method: The blood, liver and brain tissue samples were collected at predetermined times from rats. […] Compound were diluted shortly before use in 4% sodium bicarbonate for sterile injection (this is the standard pediatric solution of NaHCO3 with a pH of about 8.5).
Compound 153 was freshly prepared by diluting the drugs shortly before use in 4% sodium bicarbonate for sterile injection (this is the standard pediatric solution of NaHCO3 with a pH of about 8.5). The final concentrations of 153 solutions were 0.25 mg/mL. The 153 solutions were administered via iv or po route at dose volume of 5 ml/kg according to the latest body weight. Compound 157 was freshly prepared by diluting the drugs shortly before use in 4% sodium bicarbonate for sterile injection (this is the standard pediatric solution of NaHCO3 with a pH of about 8.5). The final concentrations of […] solutions were 0.3 mg/mL. The 157 solutions were administered via iv or po route at dose volume of 5 ml/kg according to the latest body weight.
Twelve (12) female SD rats per group were dosed by iv with 153 or 157. The rats were fasted overnight prior to dosing, with free access to water. Foods were withheld for 2 hours post-dose. Blood, liver and brain tissue samples in two animals each group were collected at each time point, within 10% of the scheduled time for each time point. Two extra animals were used for analytic method development.
Blood (>0.3 mL) were collected via aorta abdominalis in anaesthetic animals into tubes containing heparin at 15 min, 1, 2, 6, 10 and 24 hours after iv administration. Liver and brain tissues were collected immediately after animal death. The liver and brain tissues were excised and rinsed with cold saline to avoid blood residual. Upon collection, each sample was placed on ice and the blood samples were subsequently centrifuged (4° C., 11000 rpm, 5 min) to separate plasma.
The obtained plasma, liver and brain tissue samples were stored at −70° C. until LC-MS/MS analysis.
Two (2) female SD rats per group were dosed by po with 153 or 157. The rats were fasted overnight prior to dosing, with free access to water. Foods were withheld for 2 hours post-dose. Blood samples (>0.3 mL) were collected via aorta abdominalis in anaesthetic animals into tubes containing heparin at 30 min, 1, 2, 6, 10 and 24 hours after po administration.
To each sample, 20 μL IS-D (for blank samples, 20 μL acetonitrile:water (1:1) was added) and 300 μl acetonitrile was added. The sample mixture was vortexed for approximately 3 min. After centrifugation at 10000 rpm for 5 min at 4° C., 100 μL of the upper layer was transferred to a new tube and added 200 μL 0.4% formic acid in water (pH 6.0). The mixture was vortexed for approximately 3 min before injected onto the LC/MS/MS system for analysis.
On the day of the assay, the frozen liver and brain samples were thawed unassisted at room temperature. An about 200 mg weighed sample of each thawed tissue was placed into a plastic tube with water (0.6 mL) to facilitate homogenization. Tissue processing was conducted using a homogenizer for approximately 1 min, 200 μl homogenate was transferred into a fresh Eppendorf tube. To each tube, 50 μL IS-D was added and mixed. Then 600 ul acetonitrile was added and the sample mixture was vortexed for approximately 3 min. After centrifugation at 10000 rpm for 5 min at 4° C., 400 μL of the upper layer was transferred to a new tube and evaporate the supernatant to dryness at 35° C. Reconstitute the residue with 200 μL of 0.4% formic acid in water (pH6.0), and vortex for 3 min, submit for LC-MS/MS analysis.
Frozen unknown plasma samples were completely thawed at room temperature and vortexed thoroughly. With a pipette, 50 μL of plasma was transferred into a 2.0 mL Eppendorf tube. 50 μL of 0.1N HCl and 800 μL ethyl acetate were added into each sample. The sample mixture was vortexed for approximately 3 min.

[1] = iv 1.25 mg/kg, 0.25 hr, individual rats, 1.25 mg/kg
[2] = iv 1.25 mg/kg, 1 hr, individual rats, 1.25 mg/kg
[3] = iv 1.25 mg/kg, 2 hr, individual rats, 1.25 mg/kg
[4] = plasma, 153 1.25 mg/kg PO, individual rats, 1.25 mg/kg

For CCCOC(=O)C1C2CCC(O2)C1C(=O)N1CCN(C)CC1 (stereo not shown) [Compound 153], the 153 plasma concentration (PO 1.25 mg/kg, 0.25 hr, individual rats, 1.25 mg/kg) was 652 ng/mL, the 153 plasma concentration (PO 1.25 mg/kg, 1 hr, individual rats, 1.25 mg/kg) was 121 ng/mL and the MRT (female, SD, rat, in vivo, iv, 1.25 mg/kg, MRT (0 t)) was 40 min. The “MRT (0 t)” value (female, SD, rat, in vivo, po, 1.25 mg/kg) was 60.6 min, the MRT (female, SD, rat, in vivo, po, 1.25 mg/kg, MRT (0 t)) was 59.2 min and the MRT (female, SD, rat, in vivo, plasma, 153 1.25 mg/kg PO, individual rats, read-out: MRT (0 t)) was 62.4 min. It also gave a Cmax (female, Sprague-Dawley, rat, in vivo, iv, 1.25 mg/kg) of 762 ng/g, a concentration at 2 hr (female, Sprague-Dawley, rat, in vivo, po, 1.25 mg/kg) of 42 ng/mL and a concentration at 0.25 hr (female, Sprague-Dawley, rat, in vivo, po, 1.25 mg/kg, PO 1.25 mg/kg, 0.25 hr, individual rats) of 872 ng/mL. For the same compound, the concentration at 0.25 hr (female, Sprague-Dawley, rat, in vivo, po, 1.25 mg/kg, PO 1.25 mg/kg, 0.25 hr, mean) was 762 ng/mL, the concentration at 1 hr (female, Sprague-Dawley, rat, in vivo, po, 1.25 mg/kg, PO 1.25 mg/kg, 1 hr, individual rats) was 131 ng/mL and the concentration at 1 hr (female, Sprague-Dawley, rat, in vivo, po, 1.25 mg/kg, PO 1.25 mg/kg, 1 hr, mean) was 126 ng/mL. The concentration at 2 hr (female, Sprague-Dawley, rat, in vivo, po, 1.25 mg/kg, PO 1.25 mg/kg, 2 hr, individual rats, read-out: 153 plasma concentration) was 41.2 ng/mL, the concentration at 2 hr (female, Sprague-Dawley, rat, in vivo, po, 1.25 mg/kg, PO 1.25 mg/kg, 2 hr, mean, read-out: 153 plasma concentration) was 41.6 ng/mL and the 153 brain concentration [1] was 45 ng/g and 40.3 ng/g. For the same compound, the 153 liver concentration [1] was 872 ng/g and 652 ng/g, the 153 plasma concentration [1] was 563 ng/mL and 550 ng/mL and the 153 brain concentration (iv 1.25 mg/kg, 0.25 hr, mean) was 42.7 ng/g. For the same compound, the 153 liver concentration (iv 1.25 mg/kg, 0.25 hr, mean) was 762 ng/g, the 153 plasma concentration (iv 1.25 mg/kg, 0.25 hr, mean) was 557 ng/mL and the 153 brain concentration [2] was 13.9 ng/g and 14.3 ng/g. The 153 liver concentration [2] was 131 ng/g and 121 ng/g, the 153 plasma concentration [2] was 58 ng/mL and 51.4 ng/mL and the 153 brain concentration (iv 1.25 mg/kg, 1 hr, mean) was 14.1 ng/g. For the same compound, the 153 liver concentration (iv 1.25 mg/kg, 1 hr, mean) was 126 ng/g, the 153 plasma concentration (iv 1.25 mg/kg, 1 hr, mean) was 54.7 ng/mL and the 153 brain concentration [3] was 4.05 ng/g and 4.75 ng/g. The 153 liver concentration [3] was 42 ng/g and 41.2 ng/g, the 153 plasma concentration [3] was 14.8 ng/mL and 13 ng/mL and the 153 brain concentration (iv 1.25 mg/kg, 2 hr, mean) was 4.4 ng/g. The 153 liver concentration (iv 1.25 mg/kg, 2 hr, mean) was 41.6 ng/g, the 153 plasma concentration (iv 1.25 mg/kg, 2 hr, mean) was 13.9 ng/mL and the 153 plasma concentration (iv 1.25 mg/kg, 6 hr, individual rats, 1.25 mg/kg) was 1.04 ng/mL and 1.02 ng/mL. For the same compound, the 153 plasma concentration (iv 1.25 mg/kg, 6 hr, mean) was 1.03 ng/mL, the 153 plasma concentration (iv 1.25 mg/kg, 10 hr, individual rat, abnormal, not included in the calculation) was 9.42* ng/mL and the T1/2 in brain (iv administration of 153) was 35.8 min. The T1/2 in liver (iv administration of 153) was 37.6 min, the Cmax (plasma, 153 1.25 mg/kg IV, individual rats, 1.25 mg/kg) was 563 ng/mL and the AUC [4] was 163 ng·h/mL. For the same compound, the “AUC0-∞” value [4] was 163 ng·h/mL, the AUClast in brain (rat, in vivo, iv) was 39.4 ng·h/g and the AUClast in liver (rat, in vivo, iv) was 500 ng·h/g. The oral availability (rat, in vivo, po, 1.25 mg/kg) was “orally available”.

Source: patent US11236102B2, “Oxabicycloheptane prodrugs” (Lixte Biotechnology, Inc., priority 2015, dated 2022)
